In one series the target is T1, rat mGluR3 (Rattus norvegicus, UniProt P31422).
T1 construct: expressed in transfected cells; host or cells: inducible HEK-293 cell line (membranes)
The experiment in a line: [3H]LY341495 binding to membranes. How it is done: Membranes were prepared from an inducible HEK-293 cell line expressing rat mGluR2 or mGluR3. Binding assay was adapted from Johnson et al.[29]. Briefly, [^3H]LY341495 (1.4 nM) was evaluated for binding in the presence or in the absence of orthosteric and allosteric ligands. […] Addition of 5–10 μg membrane protein initiated the incubation. After 45 min at room temperature, the incubation was terminated by rapid filtration followed by scintillation counting. Ki’s were calculated using 4-parameter curve fitting.

Series [1] is described as follows: Plasma exposure and brain penetration after single oral dose. The series is classed as in vivo, mice. As to conditions: male; for AUC(0-inf) / AUC(0-t): CD-1, mouse; for AUC(0-t): tlast 8 h; for Cmax: mouse, CD-1 mice. As to the method:
Plasma and brain exposures of SAR218645 in male CD-1 mice (25–30 g at arrival) were measured after single oral doses of 1, 3 and 10 mg/kg. Mouse plasma samples (25.0 μl) were transferred into micro-centrifuge tubes (1.7 ml) and mixed with 50 μl of Internal Standard solution (500 ng/ml in acetonitrile). The tubes were vortex mixed for 1 min and centrifuged at 10,000 g for 5 min. An aliquot of the supernatant (50 μl) was transferred into an autosampler vial and mixed with 100 μl of water for LC/MS/MS analysis. Each mouse brain was first homogenized with 3.0 ml of 25% acetonitrile in water. The tissue homogenates (50.0 μl) were transferred into micro-centrifuge tubes (1.7 ml) and mixed with 100 μl of Internal Standard solution (500 ng/ml of A000597492 in acetonitrile). The tubes were vortex mixed for 1 min and centrifuged at 10,000 g for 5 min. An aliquot of the supernatant (50 μl) was transferred into an autosampler vial and mixed with 100 μl of water for LC/MS/MS analysis. The lower limits of quantitation (LLOQ) for SAR218645 were 0.500 ng/ml for plasma and 0.100 ng/ml for brain homogenate. The calibration curves were linear in the above prepared concentration ranges. The LLOQ for brain tissue was estimated to be approximately 0.80 ng/g. The pharmacokinetic parameters were calculated from the arithmetic mean of the group sample concentrations using the program WinNonLin 5.2., non-compartment model 200 for the extravascular routes.

For the next series, the system named is CD-1 mice. In words: DOI-induced head-twitch behaviors. The class given is in vivo. How it is done: Male CD-1 mice weighing 25–30 g at the time of testing were used. Animals were brought into the testing area and allowed at least 30 min to acclimatize. The behavior observation was conducted in a wire test chamber measuring 10 cm^3. SAR218645 or the selective 5-HT2A receptor antagonist, volinanserin, was administered po at various times before administration of DOI. DOI was injected ip at a dose of 1 mg/kg. Five minutes later behavioral observation commenced. A trained (blinded) observer continuously watched the mice for 20 min and noted the number of DOI-induced head twitches during this time. The number of head twitches per group was averaged and SAR218645 or volinanserin plus DOI were compared to DOI alone. Three to eight animals per group were used.

For another series, the system named is C57BL/6J mice. In words: Amphetamine-induced disruption of latent inhibition (LI). The series is classed as in vivo. As to conditions: dose-range 0.1–10, po. As to the method:
The procedure was based on that described by Lipina et al.[39]. Briefly, male C57BL/6J mice (20–30 g, 6–8-week-old) were water restricted and trained to drink in an operant chamber for 15 min over 5 daily sessions. The LI procedure was completed in the following stages each given 24 h apart: (a) Pre-exposure: The preexposed (PE) animals received 40, 85-dB white noise presentations in the chamber for 50 min; the non-preexposed (NPE) animals were confined to the chamber for the same period but without the presence of the tone. (b) Conditioning: All mice received 2 tone-shock (1 s, 0.37 mA) pairings in the chamber. (c) Test: Each mouse was placed in the chamber and allowed to drink. After completing 75 licks, the white noise was presented and lasted until the mouse completed 100 licks. For data analysis, the time during 50–75 licks (A period) and the time to complete licks 76–100 (after tone onset; B period) was calculated into a suppression ratio defined as A/(A+B). A low suppression ratio indicates a stronger suppression of drinking. LI is defined as an […] in suppression ratio (little or no suppression), whereas a shorter time to complete licks 76–100 of the pre-exposed mice compared to the non-pre-exposed mice. Data (i.e. suppression ratio) were analyzed using the Friedman nonparametric two-way ANOVA model. […]

A further series addresses rat mGluR2 (Rattus norvegicus, UniProt P31421). In words: Ca2+ mobilization assay, HEK293 cells expressing rat mGluR2/Gα16. (Calcium flux is commonly read through the fluorescence of an indicator in the cells.)

Sequence of rat mGluR2 (P31421 19-872): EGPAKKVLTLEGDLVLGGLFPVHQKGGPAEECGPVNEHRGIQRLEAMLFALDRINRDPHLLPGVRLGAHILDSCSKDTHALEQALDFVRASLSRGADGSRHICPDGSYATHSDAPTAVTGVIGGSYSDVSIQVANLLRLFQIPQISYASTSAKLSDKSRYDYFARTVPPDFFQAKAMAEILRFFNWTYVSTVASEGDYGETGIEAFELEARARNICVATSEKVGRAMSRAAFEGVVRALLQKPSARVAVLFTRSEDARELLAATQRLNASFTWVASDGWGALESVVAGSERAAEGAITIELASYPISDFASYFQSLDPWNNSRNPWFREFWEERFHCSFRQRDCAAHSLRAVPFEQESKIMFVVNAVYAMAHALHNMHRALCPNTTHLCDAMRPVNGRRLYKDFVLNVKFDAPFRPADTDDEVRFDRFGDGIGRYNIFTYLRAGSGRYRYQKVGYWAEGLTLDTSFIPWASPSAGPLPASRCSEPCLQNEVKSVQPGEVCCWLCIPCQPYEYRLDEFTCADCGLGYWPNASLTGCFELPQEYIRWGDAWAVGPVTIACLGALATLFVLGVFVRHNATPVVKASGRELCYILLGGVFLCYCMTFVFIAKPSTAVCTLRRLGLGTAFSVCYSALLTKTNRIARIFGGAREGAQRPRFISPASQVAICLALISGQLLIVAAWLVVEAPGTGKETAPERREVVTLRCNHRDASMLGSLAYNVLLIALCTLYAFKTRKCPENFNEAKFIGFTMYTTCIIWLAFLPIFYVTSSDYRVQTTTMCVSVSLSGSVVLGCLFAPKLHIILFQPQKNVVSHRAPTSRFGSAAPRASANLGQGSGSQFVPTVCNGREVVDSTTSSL
T1 sequence (P31422 23-879): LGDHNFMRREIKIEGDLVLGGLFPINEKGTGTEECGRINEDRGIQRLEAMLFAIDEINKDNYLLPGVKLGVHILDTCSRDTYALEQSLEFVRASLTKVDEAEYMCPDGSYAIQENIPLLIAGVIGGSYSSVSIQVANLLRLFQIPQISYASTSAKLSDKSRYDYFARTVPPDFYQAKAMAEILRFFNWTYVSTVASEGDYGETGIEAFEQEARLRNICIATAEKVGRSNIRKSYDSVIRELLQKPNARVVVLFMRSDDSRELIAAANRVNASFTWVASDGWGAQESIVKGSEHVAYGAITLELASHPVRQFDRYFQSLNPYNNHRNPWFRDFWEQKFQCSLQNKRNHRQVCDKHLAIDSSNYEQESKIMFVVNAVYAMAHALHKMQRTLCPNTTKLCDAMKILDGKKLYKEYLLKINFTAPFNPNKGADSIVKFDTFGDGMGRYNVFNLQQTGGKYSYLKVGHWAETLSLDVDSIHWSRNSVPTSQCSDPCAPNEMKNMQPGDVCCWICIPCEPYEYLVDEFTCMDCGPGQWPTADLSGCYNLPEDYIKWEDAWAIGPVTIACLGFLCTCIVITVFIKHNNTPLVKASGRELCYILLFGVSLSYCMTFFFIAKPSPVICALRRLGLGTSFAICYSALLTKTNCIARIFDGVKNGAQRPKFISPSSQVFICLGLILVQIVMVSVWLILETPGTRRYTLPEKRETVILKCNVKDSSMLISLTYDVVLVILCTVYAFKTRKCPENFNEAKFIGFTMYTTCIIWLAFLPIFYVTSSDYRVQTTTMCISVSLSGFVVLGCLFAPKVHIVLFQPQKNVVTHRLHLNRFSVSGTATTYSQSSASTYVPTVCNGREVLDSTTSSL
Method for rat mGluR2: Recombinant rat and human mGluR2 receptors were stably expressed in HEK293 Flp-in-T-REx cell lines with Gα16. Receptor and G-protein expression were induced with either tetracycline or doxycycline 20–24 hr before the experiment. Growth medium was replaced with HBSS buffer containing Ca^2+ and Mg^2+, 20 mM HEPES. Calcium mobilization was monitored using Fluo-4 or Calcium-3 dye on a Functional Drug Screening System (FDSS) reader (Hamamatsu Photonics, Hamamatsu City, Japan). Responses were measured as peak fluorescence intensity minus basal fluorescence. EC50 values were calculated using 4-parameter curve fitting.

As usually defined, the AUC(0-inf) is the area under the concentration-time curve extrapolated to infinity. For orientation: AUC(0-t) means exposure summed from dosing to a finite time, without extrapolation to infinity. In general, Cmax refers to the peak of the concentration-time curve. With `CC1(C)CCc2cc(OC[C@@H]3Cn4ccc(=O)nc4O3)ccc21` [SAR218645, (S)-2-(1,1-dimethyl-indan-5-yloxymethyl)-2,3-dihydro-oxazolo[3,2-a]pyrimidin-7-one], on rat mGluR3 (applied alone), the “effect on [3H]LY341495 binding, compound alone” value is reported as “no effect”. On rat mGluR3 (with glutamate), the “effect on glutamate-mediated inhibition of [3H]LY341495 binding” value is recorded as “nor did the drug affect”. The AUC(0-inf) in series [1] (plasma, 1 mg/kg oral) worked out at 230 ng·h/mL; in series [1] (plasma, 3 mg/kg oral), 540 ng·h/mL; in series [1] (plasma, 10 mg/kg oral) it was 2400 ng·h/mL. Further, the exposure AUC(0-t) in series [1] (plasma, 1 mg/kg oral) was determined as 230 ng·h/mL; in series [1] (plasma, 3 mg/kg oral), 540 ng·h/mL; in series [1] (plasma, 10 mg/kg oral), 2300 ng·h/mL. Moreover, the Cmax came out at 32 ng/g in series [1] (brain, 1 mg/kg oral); 103 ng/g in series [1] (brain, 3 mg/kg oral); 339 ng/g in series [1] (brain, 10 mg/kg oral); 131 ng/mL in series [1] (plasma, 1 mg/kg oral); 434 ng/mL in series [1] (plasma, 3 mg/kg oral); 1080 ng/mL in series [1] (plasma, 10 mg/kg oral). For the same compound, the Minimal active dose in the series with CD-1 mice (dose-range 1–10, po, CD-1 mice) was found to be 3 mg/kg; in the series with C57BL/6J mice, 1 mg/kg. Besides, the “effect on DOI-induced head twitches” value with CD-1 mice (po, DOI 1 mg/kg ip, significant at 3 and 10 mg/kg) is “dose-dependently inhibited”. On rat mGluR2 (EC10 concentration (100 nM) of glutamate), the “effect on response to EC10 glutamate” value is recorded as “enhanced sensitivity to glutamate”. Besides, on rat mGluR2 (absence of glutamate), the “intrinsic agonism (compound alone)” value is on record as “no effect per se”. Also, the “effect on maximal response to glutamate” value at rat mGluR2 (increasing concentrations of SAR218645) is listed as “no significant increase”. For the same compound, the “enhancement of glutamate potency (leftward shift of glutamate concentration-response curve)” value at rat mGluR2 (increasing concentrations of SAR218645, HEK293 rat mGluR2/Gα16) is recorded as “approximately 25 fold”.

These data come from PMC5062470, “The mGluR2 positive allosteric modulator, SAR218645, improves memory and attention deficits in translational models of cognitive symptoms associated with schizophrenia” (Scientific Reports, 2016).
